# Laboratory results taken from patent US4356188A, “1-Naphthyl-acetic acid derivatives and their therapeutic applications” (Institut de Recherche Scientifique "I.R.S.", priority 1978, dated 1982).
# Where two headings read alike, the source gives them in different places.
# Columns and labels:
# [1] = in vivo; conditions: rat, po, read-out: Acute toxicity LD 50
# Method: Groups of 5 male CH. River rats, having an average weight of 125 g, kept on a water diet for 18 hours prior to the test, are orally administered the test materials, dissolved in neutral olive oil (1 ml/100 g), at dosages of 250-500-1000 and 2000 mg/kg.
# The death rate is recorded 7 days after the administration: the lethal dose 50 (LD 50) is determined according to the method by Litchfield & Wilcoxon.
# [2] = Anti-pyretic activity: brewer's yeast-induced fever; type: in vivo; conditions: Rattus norvegicus; rats, oral, 17 hours after brewer's yeast; mean of 5 hourly determinations; dosages in method 25-50-100 mg/kg; read-out: Anti-pyretic activity ID 50
# Method: After determination of the rectal temperature, rats are sub-cutaneously administered 1 ml/100 g of a 20% brewer's yeast suspension, and are put on a water diet. 17 hours later, their temperature is again determined. The mean increase of the rectal temperature, under such experimental conditions, is about 1.5° C. The various test materials are then orally administered to groups of 10 rats (average weight: 140 g) at dosages of 25-50 and 100 mg/kg. A fourth group (control) is administered only olive oil (1 ml/100 g). The temperature drop subsequent to the treatment is followed hourly, for a period of time of 5 hours. The mean percent inhibition is calculated by effecting the mean of the 5 determinations, with respect to the value 1.5° C.
# [3] = Antalgic activity: phenylbenzoquinone-induced writhing (Sigmund, modified); type: in vivo, male Ch. River mice; conditions: Mus musculus, po; mice, p.o., 30 minutes before phenylbenzoquinone; spasms counted fifth to tenth minute; dosages in method 25-50-100 mg/kg; read-out: Antalgic activity ID 50
# Method: The method used is that according to Sigmund and co-workers (Soc. Exp. Biol. Med. 1957, 95, 729) as modified by Hendershot & Forsaith (J. Pharm. Exp. Therap. 1959, 125, 237-240) and Lines & Gouret (J. Pharm. (Paris) 1972, 3, 513-515). Intraperitoneal administration of 0.25 ml/20 g, in mice, of a 0.02% phenylbenzoquinone solution in 5% alcohol, produces the development of a pain syndrome which is characterized by writhing movements and by hollow flanks. Treatment of groups of 10 male Ch. River mice (average weight: 20 g) at dosages of 25-50 and 100 mg/kg p.o. (a control group being administered only neutral olive oil; 0.5 ml/20 g) is effected 30 minutes prior to phenylbenzoquinone administration. The ID 50 is calculated as previously indicated, from the percent inhibition of the spasms counted from the fifth to the tenth minute that follow the injection of the algogenic agent.
# [4] = Anti-inflammatory activity: carrageenin-induced plantar edema test (Winter); type: in vivo; conditions: Rattus norvegicus; rats, oral, 1 hour before 1% carrageenin; mean of 7 hourly determinations; dosages in method 25-50-100 mg/kg; read-out: Anti-inflammatory activity ID 50
# Method: The test selected is the test of the carrageenin-induced plantar edema, according to Winter (Proc. Soc. Exp. Biol., 1961, 111, 544). […] A fourth group (control) is administered only neutral olive oil (1 ml/100 g). One hour after the treatment, 0.1 ml of a 1% carrageenin suspension is injected in the left plantar aponevrosis. The intensity of the edema is evaluated by immersing the inflamed paw in a mercury plethystometer. The percent inhibition of the edema is calculated from the mean value of the 7 determinations made hourly after carrageenin administration. The dosage which inhibits inflammation by 50% (ID 50) is determined in the same manner as previously described.
# [5] = Ulcerogenic activity (Robert & Nezamis, modified by Lwoff); set-up: species or system rats of Ch. River strain; conditions: rat, in vivo
# Method: The technique used is that according to Robert & Nezamis (Proc. Soc. Exp. Biol. Med., 1958,99,443-447) as modified by Lwoff (J. Pharmacol. (Paris) 1971, 2, 81-83).
# Groups of 20 rats of Ch. River strain (average weight: 130 g) kept on a water diet for the 24 hours prior to the test, are orally administered the test materials, at dosages of 50-100-200-400 and 800 mg/kg. A reference group is administered only neutral olive oil, at a dosage of 1 ml/100 g.
# Six hours later, the animals are sacrificed by bulbar trauma, after which their stomachs are cut out, opened along the great curvature and rated according to a scale from 0 to 3, according to the extent of the ulceration.
# The ulceration index for each dosage is calculated according to the following formula: [formula]
# With this scoring method, a 100% ulceration index is equal to 300. The 50% ulcerogenic dosage (UD 50) is that which corresponds to an index of 150.
Compound,LD50 at 168 h [1] [mg/kg],ED50 [2] [mg/kg],ED50 [3] [mg/kg],ED50 [4] [mg/kg],"TD50 at 6 h ([5]; rats, oral, 6 hours, dose giving ulceration index 150, dosages in method 50-800 mg/kg, read-out: Ulcerogenic activity UD 50) [mg/kg]",TD50 at 6 h ([5]; po) [mg/kg]
"CC(C)Cc1cccc2c(C(C)C(=O)O)cccc12 (centres unmarked) [Derivative 2, 2-[5-isobutyl-1-naphthyl]propionic acid]",130,< 1,4,5,–,–
"COc1ccc2cc([C@H](C)C(=O)O)ccc2c1 [naproxen, reference compound]",–,4.1,10.6,3,43,–
"CC(C)Cc1ccc(C(C)C(=O)O)cc1 (centres unmarked) [ibuprofen, reference compound]",–,12,9,38,–,220
"CC(C)Cc1cccc2c(CC(=O)O)cccc12 [Derivative 1, [5-isobutyl-1-naphthyl]acetic acid]",600,0.7,24,15,–,> 800
